Reference: patent US11161839B2, “2-quinolone derived inhibitors of BCL6” (Cancer Research Technology Limited, priority 2017, dated 2021)

Target: human BCL6 BTB domain (Trx-6xHis-BCL6) (Homo sapiens (Human), UniProt P41182)
Assay: HTRF in vitro assay (BCL6 BTB domain / BCOR-AF633 peptide)
Type: binding
[1] = further generated data (Table 1b), 1 nM Trx-6xHis-BCL6, 0.5 nM anti-6xHis-Terbium cryptate
[2] = initially generated data (Table 1a), 10 nM Trx-6xHis-BCL6, 1 nM anti-6xHis-Terbium cryptate

Row | HTRF pIC50 [1] | HTRF pIC50 [2] | IC50 (further generated data (Table 1b), 1 nM Trx-6xHis-BCL6, 0.5 nM anti-6xHis-Terbium cryptate, read-out: HTRF pIC50 (converted)) [nM] | SMILES
1 | 6.42 | 6.36 | – | COC1CCC(NC(=O)[C@@H](C)Nc2cc(=O)n(C)c3ccc(Nc4ccnc(Cl)c4C#N)cc23)CC1 (stereo partly drawn) [Example 3i, (R)-2-((6-((2-Chloro-3-cyanopyridin-4-yl)amino)-1-methyl-2-oxo-1,2-dihydroquinolin-4-yl)amino)-N-(4-methoxycyclohexyl)propanamide]
2 | 6.35 | – | – | Cn1c(=O)cc(NC2(CO)CC2)c2cc(Nc3cc(C(=O)O)nc(Cl)c3C#N)ccc21 [Example 9k, 6-chloro-5-cyano-4-((4-((1-(hydroxymethyl)cyclopropyl)amino)-1-methyl-2-oxo-1,2-dihydroquinolin-6-yl)amino)picolinic acid]
3 | 6.27 | 6.37 | – | Cn1c(=O)cc(N[C@H]2C[C@H](O)C2)c2cc(Nc3ccnc(Cl)c3C#N)ccc21 [Example 1f, trans-2-chloro-4-[[4-[(3-hydroxycyclobutyl)amino]-1-methyl-2-oxo-6-quinolyl]amino]pyridine-3-carbonitrile]
4 | 6.24 | – | – | CC(Nc1cc(=O)n(C)c2ccc(Nc3nc(N4CCC5(CCCN(C)C5=O)CC4)ncc3Cl)cc12)c1ncccn1 (centres unmarked) [Example 17g, 9-(5-chloro-4-((1-methyl-2-oxo-4((1-(pyrimidin-2-yl)ethyl)amino)-1,2-dihydroquinolin-6-yl)amino)pyrimidin-2-yl)-2-methyl-2,9-diazaspiro[5.5]undecan-1-one]
5 | 6.13 | 6.10 | – | Cn1c(=O)cc(N[C@H]2CCOC2)c2cc(Nc3ccnc(Cl)c3C#N)ccc21 [Example 1g, 2-chloro-4-[[1-methyl-2-oxo-4-[[(3S)-tetrahydrofuran-3-yl]amino]-6-quinolyl]amino]pyridine-3-carbonitrile]
6 | 7.74 | – | – | Cn1c(=O)cc(NC(C)(C)c2ncc(C3CC3)cn2)c2cc(Nc3cc(C(=O)O)nc(Cl)c3C#N)ccc21 [Example 9a, 6-chloro-5-cyano-4-((4-((2-(5-cyclopropylpyrimidin-2-yl)propan-2-yl)amino)-1-methyl-2-oxo-1,2-dihydroquinolin-6-yl)amino)picolinic acid]
7 | 6.14 | 6.05 | – | C[C@H](CO)Nc1cc(=O)n(C)c2ccc(Nc3ccnc(Cl)c3C#N)cc12 [Example 3j, (R)-2-chloro-4-((4-((1-hydroxypropan-2-yl)amino)-1-methyl-2-oxo-1,2-dihydroquinolin-6-yl)amino)nicotinonitrile]
8 | 6.85 | 6.78 | – | CC(Nc1cc(=O)n(C)c2ccc(Nc3cc(C(=O)O)nc(Cl)c3C#N)cc12)C1CC1 (centres unmarked) [Example 2a, 6-Chloro-5-cyano-4-[[4-(1-cyclopropylethylamino)-1-methyl-2-oxo-6-quinolyl]amino]pyridine-2-carboxylic acid]
9 | – | – | 708 | CCNc1cc(=O)n(CCOCCOC)c2ccc(Nc3ccnc(Cl)c3C#N)cc12 [Example 1o, 2-chloro-4-[[4-(ethylamino)-1-[2-(2-methoxyethoxy)ethyl]-2-oxo-6-quinolyl]amino]pyridine-3-carbonitrile]
10 | 6.43 | 6.21 | – | CCNc1cc(=O)n(C)c2ccc(Nc3cc(C(=O)NC)nc(Cl)c3C#N)cc12 [Example 5, 6-Chloro-5-cyano-4-[[4-(ethylamino)-1-methyl-2-oxo-6-quinolyl]amino]-N-methyl-pyridine-2-carboxamide]
11 | 6.55 | 6.41 | – | Cn1c(=O)cc(NC2CC2)c2cc(Nc3cc(C(=O)O)nc(Cl)c3C#N)ccc21 [Example 2b, 6-chloro-5-cyano-4-[[4-(cyclopropylamino)-1-methyl-2-oxo-6-quinolyl]amino]pyridine-2-carboxylic acid]
12 | 6.26 | 6.31 | – | Cc1ccnc(C(C)Nc2cc(=O)n(C)c3ccc(Nc4ccnc(Cl)c4C#N)cc23)n1 (centres unmarked) [Example 1i, 2-chloro-4-[[1-methyl-4-[1-(4-methylpyrimidin-2-yl)ethylamino]-2-oxo-6-quinolyl]amino]pyridine-3-carbonitrile]
13 | 6.29 | 6.10 | – | CC(Nc1cc(=O)n(C)c2ccc(Nc3ccnc(Cl)c3C#N)cc12)c1ccncn1 (centres unmarked) [Example 1q, 2-chloro-4-[[1-methyl-2-oxo-4-(1-pyrimidin-4-ylethylamino)-6-quinolyl]amino]pyridine-3-carbonitrile]
14 | 7.01 | – | – | COCC(C)(C)Nc1cc(=O)n(C)c2ccc(Nc3cc(C(=O)O)nc(Cl)c3C#N)cc12 [Example 9m, 6-chloro-5-cyano-4-((4-((1-methoxy-2-methylpropan-2-yl)amino)-1-methyl-2-oxo-1,2-dihydroquinolin-6-yl)amino)picolinic acid]
15 | 6.13 | – | – | C[C@H](Nc1cc(=O)n(C)c2ccc(Nc3cc(C(=O)O)nc(Cl)c3C#N)cc12)C1CC1 [Example 9d, (S)-6-chloro-5-cyano-4-((4-((1-cyclopropylethyl)amino)-1-methyl-2-oxo-1,2-dihydroquinolin-6-yl)amino)picolinic acid]
16 | 6.84 | – | – | CNC(=O)c1cc(Nc2ccc3c(c2)c(NC2(C#N)CC2)cc(=O)n3C)c(C#N)c(Cl)n1 [Example 24a, 6-chloro-5-cyano-4-((4-((1-cyanocyclopropyl)amino)-1-methyl-2-oxo-1,2-dihydroquinolin-6-yl)amino)-N-methylpicolinamide]
17 | 6.42 | – | – | Cn1cc(CNC(=O)C(C)(C)Nc2cc(=O)n(C)c3ccc(Nc4ccnc(Cl)c4C#N)cc23)cn1 [Example 11c, 2-((6--((2-chloro-3-cyanopyridin-4-yl)amino)-1-methyl-2-oxo-1,2-dihydroquinolin-4-yl)amino)-2-methyl-N-((1-methyl-1H-pyrazol-4-yl)methyl)propanamide]
18 | 6.61 | 6.62 | – | C[C@@H](Nc1cc(=O)n(C)c2ccc(Nc3ccnc(Cl)c3C#N)cc12)C(=O)NC1CCCC1 [Example 3d, (R)-2-((6-((2-Chloro-3-cyanopyridin-4-yl)amino)-1-methyl-2-oxo-1,2-dihydroquinolin-4-yl)amino)-N-cyclopentylpropanamide]
19 | 5.84 | 6.00 | – | CC(Nc1cc(=O)n(C)c2ccc(Nc3ccnc(Cl)c3C#N)cc12)c1cc[nH]n1 (centres unmarked) [Example 1t, 2-chloro-4-[[1-methyl-2-oxo-4-[1-(1H-pyrazol-3-yl)ethylamino]-6-quinolyl]amino]pyridine-3-carbonitrile]
20 | 7.82 | – | – | Cn1c(=O)cc(NC(C)(C)c2ncccn2)c2cc(Nc3cc(C(=O)N4CC5(CCO5)C4)nc(Cl)c3C#N)ccc21 [Example 8g, 2-chloro-4-((1-methyl-2-oxo-4-((2-(pyrimidin-2-yl)propan-2-yl)amino)-1,2-dihydroquinolin-6-yl)amino)-6-(1-oxa-6-azaspiro[3.3]heptane-6-carbonyl)nicotinonitrile]
21 | 7.65 | – | – | Cn1c(=O)cc(NC(C)(C)c2ncccn2)c2cc(Nc3cc(C(=O)O)nc(Cl)c3C#N)ccc21 [Example 9f, 6-chloro-5-cyano-4-((1-methyl-2-oxo-4-((2-(pyrimidin-2-yl)propan-2-yl)amino)-1,2-dihydroquinolin-6-yl)amino)picolinic acid]
22 | 7.05 | – | – | Cn1c(=O)cc(NC2(C#N)CC2)c2cc(Nc3cc(C(=O)O)nc(Cl)c3C#N)ccc21 [Example 9g, 6-chloro-5-cyano-4-((4-((1-cyanocyclopropyl)amino)-1-methyl-2-oxo-1,2-dihydroquinolin-6-yl)amino)picolinic acid]
23 | 6.05 | – | – | COCCOCC(C)Nc1cc(=O)n(C)c2ccc(Nc3ccnc(Cl)c3C#N)cc12 (centres unmarked) [Example 11g, 2-chloro-4-((4-((1-(2-methoxyethoxy)propan-2-yl)amino)-1-methyl-2-oxo-1,2-dihydroquinolin-6-yl)amino)nicotinonitrile]
24 | 6.21 | – | – | C[C@@H](Nc1cc(=O)n(C)c2ncc(Nc3ccnc(Cl)c3Cl)cc12)C1CC1 [Example 6f, (R)-4-((1-cyclopropylethyl)amino)-6-((2,3-dichloropyridin-4-yl)amino)-1-methyl-1,8-naphthyridin-2(1H)-one]
25 | 6.05 | – | – | CC(Nc1cc(=O)n(C)c2ccc(Nc3ncnc(Cl)c3Cl)cc12)c1ncccn1 (centres unmarked) [Example 19e, 6-((5,6-dichloropyrimidin-4-yl)amino)-1-methyl-4-((1-(pyrimidin-2-yl)ethyl)amino)quinolin-2(1H)-one]
26 | 6.25 | 6.05 | – | CCNc1cc(=O)n(CCN2C(=O)CCC2=O)c2ccc(Nc3ccnc(Cl)c3C#N)cc12 [Example 1r, 2-chloro-4-[[1-[2-(2,5-dioxopyrrolidin-1-yl)ethyl]-4-(ethylamino)-2-oxo-6-quinolyl]amino]pyridine-3-carbonitrile]
27 | 6.84 | – | – | Cn1c(=O)cc(NC(C)(C)C)c2cc(Nc3cc(C(=O)O)nc(Cl)c3C#N)ccc21 [Example 9n, 4-((4-(tert-butylamino)-1-methyl-2-oxo-1,2-dihydroquinolin-6-yl)amino)-6-chloro-5-cyanopicolinic acid]

Row | SMILES | HTRF pIC50 [1] | HTRF pIC50 [2] | IC50 (further generated data (Table 1b), 1 nM Trx-6xHis-BCL6, 0.5 nM anti-6xHis-Terbium cryptate, read-out: HTRF pIC50 (converted)) [nM]
28 | Cc1nnc(C(C)Nc2cc(=O)n(C)c3ccc(Nc4ccnc(Cl)c4C#N)cc23)o1 (centres unmarked) [Example 3l, 2-Chloro-4-((1-methyl-4-((1-(5-methyl-1,3,4-oxadiazol-2-yl)ethyl)amino)-2-oxo-1,2-dihydroquinolin-6-yl)amino)nicotinonitrile] | 5.93 | 6.16 | –
29 | C[C@@H]1CN(c2ncc(Cl)c(Nc3ccc4c(c3)c(N[C@H](C)C3CC3)cc(=O)n4C)n2)C[C@H](C)O1 [Example 17d, 6-((5-chloro-2-((2S,6R)-2,6-dimethylmorpholino)pyrimidin-4-yl)amino)-4-(((R)-1-cyclopropylethyl)amino)-1-methylquinolin-2(1H)-one:formic acid (1:1)] | 6.19 | – | –
30 | CCNc1cc(=O)n(C)c2ccc(Nc3cc(C(=O)O)nc(Cl)c3C#N)cc12 [Example 4, 6-Chloro-5-cyano-4-[[4-(ethylamino)-1-methyl-2-oxo-6-quinolyl]amino]pyridine-2-carboxylic acid] | 6.07 | 6.06 | –
